Experimental data published in patent US5523315A, “N-(hydroxyethyl)butanediamide derivatives” (Bio-Mega/Boehringer Ingelheim Research Inc., priority 1993, dated 1996).

target: T1, human renin (Homo sapiens, UniProt P00797); test: plasma renin assay (inhibition of human renin; angiotensin I generated, measured by radioimmunoassay); assay type: biochemical; conditions: human plasma pool, pH 6.0, 2 h incubation at 37°
T1 construct: A human plasma pool is used as the source of both the substrate (angiotensinogen) and the enzyme (renin); from tissue; host or cells: pooled human plasma
T1 sequence (P00797 67-406): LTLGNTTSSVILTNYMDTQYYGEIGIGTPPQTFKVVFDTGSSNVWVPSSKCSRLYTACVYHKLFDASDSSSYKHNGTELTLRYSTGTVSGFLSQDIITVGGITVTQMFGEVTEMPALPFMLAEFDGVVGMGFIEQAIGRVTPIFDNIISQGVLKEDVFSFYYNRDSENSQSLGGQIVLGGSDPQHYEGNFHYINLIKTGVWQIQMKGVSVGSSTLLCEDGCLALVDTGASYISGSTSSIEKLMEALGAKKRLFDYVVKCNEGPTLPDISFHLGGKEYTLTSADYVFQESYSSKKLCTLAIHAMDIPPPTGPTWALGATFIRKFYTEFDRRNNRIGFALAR
Method in brief: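 Pooled human plasma supplies both renin and angiotensinogen; inhibitor in MES/1% HSA buffer (1% DMSO final) incubated 2 h at 37° at pH 6.0. Angiotensin I generated quantified by radioimmunoassay, inhibition relative to no-inhibitor control, IC50 by nonlinear regression.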

| Compound | IC50 |
| --- | --- |
| CC(C)C[C@H](O)[C@H](O)[C@H](CC1CCCCC1)NC(=O)[C@@H](CC(=O)N(C)CC1(O)CCCCC1)Cc1c[nH]cn1 [Compound 35, N^4-[(1-hydroxycyclohexyl)methyl]-N^4-methyl-N^1-[1(S)-(cyclohexylmethyl)-2(R),3(S)-dihydroxy-5-methylhexyl]-2(R)-(1H-imidazol-4-ylmethyl)-butanediamide] | 67 nM |
| CC(C)C[C@H](O)[C@H](O)[C@H](CC1CCCCC1)NC(=O)[C@@H](CC(=O)N(CC(=O)N(C)C)CC1(O)CCCCCC1)Cc1csc(N)n1 [Compound 53, N^4-[(1-hydroxycycloheptyl)methyl]-N^4-[2-(dimethylamino)-2-oxoethyl]-N^1-[1(S)-(cyclohexylmethyl)-2(R),3(S)-dihydroxy-5-methylhexyl]-2(R)-[(2-amino-4-thiazolyl)methyl]-butanediamide] | 2 nM |
| CC(C)C[C@H](O)[C@H](O)[C@H](CC1CCCCC1)NC(=O)[C@@H](CC(=O)N(C)CC1(O)CCCCC1)Cc1cscn1 [Compound 30, N^4-[(1-hydroxycyclohexyl)methyl]-N^4-methyl-N^1-[1(S)-(cyclohexylmethyl)-2(R),3(S)-dihydroxy-5-methylhexyl]-2(R)-(4-thiazolylmethyl)butanediamide] | 12 nM |
| CC(C)C[C@H](O)[C@H](O)[C@H](CC1CCCCC1)NC(=O)[C@@H](CC(=O)N(Cc1ccccc1)CC1(O)CCCCC1)CC1CC1 [Compound 1, N^4-benzyl-N^4-[(1-hydroxycyclohexyl)methyl]-N^1-[1(S)-(cyclohexylmethyl)-2(R),3(S)-dihydroxy-5-methylhexyl]-2(R)-(cyclopropylmethyl)butanediamide] | 36 nM |
| CC(C)C[C@H](O)[C@H](O)[C@H](CC1CCCCC1)NC(=O)[C@@H](CC(=O)N(CC(C)O)CC1CCCCC1)Cc1cscn1 (single isomer, unassigned) [Compound 39, N^4-(cyclohexylmethyl)-N^4-[2(R or S)-hydroxypropyl]-N^1-[1(S)-(cyclohexylmethyl)-2(R),3(S)-dihydroxy-5-methylhexyl]-2(R)-(4-thiazolylmethyl)butanediamide] | 8.7 nM |
